# Assay results: patent US8563715B2, “Pyrimidine derivative having cell protecting effect and uses thereof” (Zenyaku Kogyo Kabushikikaisha, priority 2008, dated 2013)
# Assays:
# [1] = system: astrocyte/neuron co-culture; assay: Brain cell damage induced by hydrogen peroxide treatment (LDH assay); assay type: cell-based; settings: Rattus norvegicus, hydrogen peroxide (250 μM), 24 hours, read-out: 50% inhibition concentration against cell damage in entire co-culture system (EC50 value)
# Description: (§1) The brain was removed from 1 to 2 day old Wistar rats (Charles River) or Sprague-Dawley (IGS) rats (Charles River), and the cerebral cortex including the hippocampus was excised under ice cooling. After this cerebral cortex was minced, it was digested with papain solution (9 U/ml) containing DNase I (30 U/ml) at 37 degrees Celsius for 15 minutes, dispersing the cells. After further carrying out mechanical dispersing by pipetting, it was passed through a cell strainer with a pore size of 70 μm, and a cell suspension was obtained. Cells derived from 1.4 cerebra were seeded on 150 mm tissue culture dish (Iwaki Glass), and primary culture was carried out at 37 degrees Celsius and 5% CO2 using a D-MEM medium (Invitrogen) containing 10% heat-inactivated fetal calf serum (JRH). One day after the start of the culture, the nonadherent cells were removed, and the primary cultured astrocytes were obtained by continuing the culture for 4 to 5 further days. The primary cultured astrocytes were dispersed by trypsin treating, suspended in cryopreservation solution, and cryopreserved.
# (§2) After thawing the cryopreserved primary cultured astrocytes, they were seeded on tissue culture plates (Iwaki Glass), and a confluent astrocyte layer was produced by a further 7 days of secondary culture using a D-MEM medium containing 10% heat-inactivated fetal calf serum. Neurons to be used in the co-culture with the astrocyte layer were obtained from fetal rat cerebrum. Briefly, brains were removed from Wistar rats (Charles River) or Sprague-Dawley (IGS) rats (Charles River) of embryonic age 18.5 days, and the cerebral cortex including the hippocampus was excised under ice cooling. After this cerebral cortex was minced, it was digested in papain solution (9 U/ml) containing DNase I (30 U/ml) at 37 degrees Celsius for 15 minutes, dispersing the cells. After further carrying out mechanical dispersing by pipetting, it was passed through a cell strainer with a pore size of 70 μm, and a cell suspension was obtained. This cell suspension was plated at a density of 1.3×10^5 cells/cm^2 on the astrocyte layer, and a co-culture was carried out using D-MEM/F-12 medium (Invitrogen) containing 10% heat-inactivated fetal calf serum and 5% horse serum (Invitrogen). 2 days after the start of the co-culture, cells were treated for 24 hours with 10 μM cytosine arabinoside in order to suppress the excessive cell proliferation of microglia and the like. 8 to 9 days after the start of the co-culture, cells were used for the test. Additionally, using one portion of the cells, immunofluorescent staining and nuclear staining was carried out with astrocyte recognizing antibodies (anti-GFAP) and neuron recognizing antibodies (anti-MAP2), in order to confirm that the present culture system is a co-culture system of astrocytes and neurons.
# (§3) An astrocyte/neuron co-culture cultured on a 96 well plate was used in the test. A predetermined concentration of the test substance and hydrogen peroxide (250 μM) was simultaneously added to the cell culture in each well with continuing cultivation, and analysis was done 24 hours after this treatment. Using an LDH Cytotoxicity Detection Kit (Takara Bio), analysis was carried out in accordance with the included instruction manual, and the damage to the entire co-culture system by the hydrogen peroxide treatment and the protective effect (EC 50 value) of the test substance was evaluated. Further, the cell bodies and the neuronal processes of the neurons were observed by microscope, and the neuroprotective effect was evaluated.
# [2] = system: neurons in astrocyte/neuron co-culture; assay: Brain cell damage induced by hydrogen peroxide treatment (neuroprotective effect, microscope observation); assay type: cell-based; settings: Rattus norvegicus, hydrogen peroxide (250 μM), 24 hours, read-out: Concentration for complete inhibition of neuronal death
# Description: as §1, §2, §3
# [3] = system: rat brain homogenate (lipid peroxide production); assay: Antioxidant activity test (rat brain homogenate autoxidation test); assay type: biochemical; settings: lipid peroxide production suppression, 2 hours at 37 degrees Celsius, thiobarbituric acid method
# Description: The cerebrum was removed from 7 to 11 week old male Wistar rats (Nihon Ikagaku) or male Sprague-Dawley (IGS) rats (Charles River), physiological saline was added, and a 20% brain homogenate was made. 4 μl of test compound dissolved in DMSO was mixed with 200 μl of brain homogenate and 200 μl of PBS (−) (diluted 100 times), incubated for 2 hours at 37 degrees Celsius and shaken at a rate of 160 times per minute, thereby producing a lipid peroxide. After cooling for 5 minutes, the produced lipid peroxide was measured as a thiobarbituric acid reactive substance by using the thiobarbituric acid method. Briefly, 100 μl of 8.1% dodecyl sulfate, 750 μl of 20% acetic acid adjusted to a pH of 3.5, and 750 μl of 0.8% thiobarbituric acid were added, and boiled for 60 minutes, and then cooled. Next, 500 μl of distilled water and 2.5 ml of N-butanol/pyridine (15:1) were added and after 5 minutes of shaking, the supernatant was taken after centrifuging for 10 minutes at 3000 rpm, and the absorbance at 532 nm was measured. The number of examples was 2 examples. Calculation was done of the (absorbance at each concentration/absorbance of a solvent control)×100, and after logit transformation, the lipid peroxide production suppression effect (IC 50 value) was calculated as an indicator of antioxidant activity.
SMILES,EC50 [1] [nM],EC100 [2] [µM],IC50 [3] [nM]
"CNc1nc(/C=C/c2ccc(OC)cc2)nc(N2CCOCC2)c1N [Compound 139, 5-amino-2-[2-(4-methoxyphenyl)vinyl]-4-methylamino-6-morpholinopyrimidine]",1150,3,110
"COc1ccc(/C=C/c2nc(N3CCOCC3)c(F)c(N3CCOCC3)n2)cc1 [Compound 216, 5-fluoro-2-[2-(4-methoxyphenyl)vinyl]-4,6-dimorpholinopyrimidine]",730,3,860
"COc1ccc(/C=C/c2nc(NCC(=O)OC(C)(C)C)c(N)c(N3CCOCC3)n2)cc1 [Compound 197, 5-amino-4-(4-tert-butoxycarbonylmethylamino)-2-[2-(4-methoxyphenyl)vinyl]-6-morpholinopyrimidine]",550,3,990
"COc1ccc(/C=C/c2nc(N3CCOCC3)c(N)c(N(C)C3CCN(C)CC3)n2)cc1 [Compound 198, 5-amino-2-[2-(4-methoxyphenyl)vinyl]-4-[N-methyl-N-(1-methylpiperidin-4-yl)amino]-6-morpholinopyrimidine]",3740,10,1040
"Fc1c(N2CC=C(c3ccccc3)CC2)nc(N2CCOCC2)nc1N1CCOCC1 [Compound 121, 5-fluoro-2,4-dimorpholino-6-(4-phenyl-1,2,5,6-tetrahydropyridin-1-yl)pyrimidine]",320,1,5050
"CN(C)c1nc(N2CCC(Cc3ccccc3)CC2)nc(N2CCSCC2)c1N [Compound 69, 5-amino-2-(4-benzylpiperidin-1-yl)-4-dimethylamino-6-thiomorpholinopyrimidine]",290,3,1260
"Cn1c(/C=C/c2nc(N3CCOCC3)c(N)c(N3CCOCC3)n2)cc2sccc21 [Compound 133, 5-amino-2-[2-(4-methylthiopheno[1,2-b]pyrrol-5-yl)vinyl]-4,6-dimorpholinopyrimidine]",2030,30,1040
"COc1ccc(/C=C/c2nc(N3CCOCC3)c(N)c(N3CCC(N)CC3)n2)cc1 [Compound 196, 5-amino-4-(4-aminopiperidin-1-yl)-2-[2-(4-methoxyphenyl)vinyl]-6-morpholinopyrimidine]",3780,10,2730
"Nc1ccc(N2CCN(c3nc(N4CCOCC4)nc(N4CCOCC4)c3F)CC2)cc1 [Compound 146, 4-[4-(4-aminophenyl)piperazin-1-yl]-5-fluoro-2,6-dimorpholinopyrimidine]",960,3,1910
"COc1ccc(/C=C/c2nc(N3CCOCC3)c(N)c(N3CCN(CCN(C)C)CC3)n2)cc1 [Compound 175, 5-amino-2-[2-(4-methoxyphenyl)vinyl]-4-[4-(2-dimethylaminoethyl-piperazin-1-yl)]-6-morpholinopyrimidine]",3240,10,2080
"COc1ccc(C=Cc2nc(N3CCOCC3)c(N)c(N3CCOCC3)n2)cc1 [Compound 131, 5-amino-2-[2-(4-methoxyphenyl)vinyl]-4,6-dimorpholinopyrimidine]",8990,10,7040
"Fc1c(N2CCOCC2)nc(N2Cc3ccccc3C2)nc1N1CCOCC1 [Compound 89, 5-fluoro-2-(isoindolin-2-yl)-4,6-dimorpholinopyrimidine]",530,3,3480
"COc1ccc(/C=C/c2nc(N3CCOCC3)c(N)c(N3CCN(C(=O)CN)CC3)n2)cc1 [Compound 176, 5-amino-4-(4-aminomethylcarbonylpiperazin-1-yl)-2-[2-(4-methoxyphenyl)vinyl]-6-morpholinopyrimidine]",2740,10,2160
"COc1ccc(CCc2nc(N3CCNCC3)c(N)c(N3CCOCC3)n2)cc1 [Compound 199, 5-amino-2-[2-(4-methoxyphenyl)ethyl]-4-(1-piperazinyl)-6-morpholinopyrimidine]",3050,10,8120
"COc1ccc(/C=C/c2nc(N3CCNCC3)c(N)c(N3CCOCC3)n2)cc1 [Compound 170, 5-amino-2-[2-(4-methoxyphenyl)vinyl]-4-morpholino-6-(1-piperazinyl)pyrimidine]",990,3,3100
"Cc1cccc(N2CCN(c3nc(N4CCOCC4)c(F)c(N4CCOCC4)n3)CC2)c1C [Compound 105, 5-fluoro-4,6-dimorpholino-2-[4-(2,3-xylyl)piperazin-1-yl]pyrimidine]",290,1,2770
"COc1ccc(/C=C/c2nc(N(C)C)c(N)c(N(C)C)n2)cc1 [Compound 140, 5-amino-4,6-bis(dimethylamino)-2-[2-(4-methoxyphenyl)vinyl]pyrimidine]",5150,10,550
